What was measured:
[1] = standard laboratory test which indicates analgesic activity
Text: However, the preferred use of the compounds of this invention is as anti-psychotic agents.

[2] = molecular target: T1, ^3 H-spiroperidol binding (Mus musculus, UniProt P61168); assay: In vivo spiroperidol binding assay
T1 construct: from tissue; host or cells: brain of ICR mice: striata, septum, most of the olfactory tubercles, small part of ventral cortex (in vivo labelling)
Experimental: D. In vivo spiroperidol Binding Assay
ICR strain mice, weighing about 20 gm, are given the test drugs or vehicle, i.p. or s.c., in 0.10 ml. Drug solutions are in saline, 0.1M citric acid, or 33% propylene glycol. After 1 hour, mice are given 66 micro-Curies (μCi)/kg of ^3 H-spiroperidol (specific activity […]) i.v. in 0.10 ml of saline. Four to 6 mice are given each test drug, and 4 of those which are successfully i.v. injected with the label are used for the rest of the experiment. At 3 hours (2 hours after the ^3 H-spiroperidol injection), the mice are sacrificed and the brains rapidly dissected. A section of brain tissue including the striata, septum, most of the olfactory tuberoles, and a small associated portion of the ventral edge of the cortex, is removed to dry ice. The tissues are weighed (usually 60-70 mg) and then dissolved in 1.0 ml of Protosol (New England Nuclear) overnight at about 40° C. The solutions are then neutralized with 80 μl of 6N HCl or 200 μl of 2.4N HCl, 15 ml of ACS counting solution (Amersham) is added, and the samples are counted by liquid scintillation spectroscopy. The amount of bound ^3 H-spiroperiodol, in cpm/mg tissue, is calculated for each test group and compared to the control group using the two-tailed Student's t test.
Of these tests, the in vivo spiroperidol binding assay is the most important indicator of antipsychotic activity. […]

T1 sequence (P61168 whole entry): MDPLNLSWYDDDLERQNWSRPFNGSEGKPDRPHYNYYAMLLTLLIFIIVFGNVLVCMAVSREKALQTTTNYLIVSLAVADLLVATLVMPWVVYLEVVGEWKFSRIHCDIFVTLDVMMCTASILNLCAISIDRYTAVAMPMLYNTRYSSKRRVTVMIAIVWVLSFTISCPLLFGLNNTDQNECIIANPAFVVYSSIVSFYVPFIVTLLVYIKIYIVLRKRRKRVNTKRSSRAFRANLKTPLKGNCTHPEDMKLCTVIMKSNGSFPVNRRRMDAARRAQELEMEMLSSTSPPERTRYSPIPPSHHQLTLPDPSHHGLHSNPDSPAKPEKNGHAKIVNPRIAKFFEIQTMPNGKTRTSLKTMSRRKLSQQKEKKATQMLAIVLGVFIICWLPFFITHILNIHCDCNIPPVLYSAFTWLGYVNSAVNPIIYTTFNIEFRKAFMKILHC

SMILES: Cc1nnc(C(C)(O)CCN(C)CCc2ccccc2)n1-c1ccccc1 (stereo not drawn) [Example 2]
- analgesic activity (in words) [1]: effective

SMILES: Cc1nnc(/C=C/CN2CCN(c3ccccc3)CC2)n1-c1ccccc1 [Example 3, (E)-1-[3-(5-methyl-4-phenyl-4H-1,2,4-triazol-3-yl)-2-propenyl]-4-phenyl-piperazine]
- effectiveness in the in vivo spiroperidol binding assay (in words) [2]: most effective

SMILES: CN(CCCc1nncn1-c1ccccc1)CCc1ccccc1 [N-methyl-4-phenyl-N-(2-phenylethyl)-4H-1,2,4-triazole-3-propanamine]
- effectiveness in the in vivo spiroperidol binding assay (in words) [2]: most effective
